Series [1] addresses PDK1 kinase in PC3 cells (PKB phosphorylation at Thr 308) (Homo sapiens (Human), UniProt O15530). Briefly: Cellular testing of PDK1 kinase inhibitors in PC3 cells (Luminex, phospho-T308-PKB). In kind it is cell-based. The method, then: Method for the Cellular Testing of PDK1 Kinase Inhibitors in PC3 Cells
The cellular assay for the determination of the PDK1 kinase activity is carried out as a Luminex assay in the 96-well format. PC3 cells are sown at 20,000 cells per well in 100 μl of medium (45% of […]/45% of Ham's F12/10% of FCS) and incubated on the following day for 30 min with a serial dilution of the test substance (7 concentrations) under serum-free conditions. The cells are subsequently lysed using 90 μl of lysis buffer (20 mM tris/HCl pH 8.0, 150 mM NaCl, 1% of NP40, 10% of glycerol, 1% of phosphatase inhibitor I, 1% of phosphatase inhibitor II, 0.1% of protease inhibitor cocktail III, 0.01% of benzonase) per well, and the lysates are separated off from insoluble cell constituents by means of centrifugation through a 96-well filter plate (0.65 μm). The lysates are incubated overnight at 4° C. with shaking with Luminex beads to which an anti-total PKB antibody is coupled. The detection is carried out on the following day by addition of a phospho-T308-PKB antibody and a species-specific […] secondary antibody. The detection of phospho-T308-PKB is carried out by measurement in a Luminex100 instrument by determination of 100 events per cavity in a measurement time of 60 sec. […] The values of the batches treated with test substance are calculated therefrom as percentage of control, and IC50 values are determined by means of RS1.

A short description of the next series: Solubility. In kind it is physicochemical. Particulars: Table I.
The target in another series is PDK1 (His6-PDK1(Δ1-50)) (Homo sapiens (Human), UniProt O15530). Briefly: Test for the inhibition of PDK1 (enzymatic, flashplate, 33P-ATP). It is filed as biochemical. The method, then: 4. Test for the Inhibition of PDK1
The experimental batches are carried out in a flashplate system with 384 wells/microtitration plate.
The test substances are employed in corresponding concentrations (if desired in a dilution series). The control is carried out without test substance. The reaction is stopped using standard methods and washed. The activity of the kinase is measured via the incorporated radioactivity in top count. In order to determine the non-specific kinase reaction (blank value), the experimental batches are carried out in the presence of 100 nM staurosporine.
The radioactivity (decompositions per minute) of the blank value (no use of test substance in the presence of staurosporine) is subtracted from all other radioactivity values. The controls (kinase activity without test substance) are set equal to 100 percent and all other radioactivity values (after subtracting the blank value) are expressed set in relation thereto (for example in % of the control).

Where [2] appears, read: PKB phosphorylation at Thr 308 in PC3 cells, read-out: cellular IC50.
[3] abbreviates: Table I comparison, values in nM, read-out: PDK1 inhibition assay cellular IC50.
Setting [4] is: Table I comparison, read-out: PDK1 inhibition assay enzymatic IC50.
Setting [5] is: enzymatic PDK1 inhibition assay, read-out: enzymatic IC50.
Setting [6] is: Table I comparison, values given in μM, read-out: PDK1 inhibition assay cellular IC50.

What is called IC50 is the concentration at which inhibition is half-maximal. Broadly, the solubility is the dissolved amount per volume that the medium holds. The low end stands for a poorly soluble substance, the high end for a readily soluble substance.

Values after ≈ are worked out from the molar mass of the structure shown. Where two headings read alike, the source gives them in different places.

Chain of PDK1 kinase in PC3 cells (PKB phosphorylation at Thr 308) (O15530 whole entry): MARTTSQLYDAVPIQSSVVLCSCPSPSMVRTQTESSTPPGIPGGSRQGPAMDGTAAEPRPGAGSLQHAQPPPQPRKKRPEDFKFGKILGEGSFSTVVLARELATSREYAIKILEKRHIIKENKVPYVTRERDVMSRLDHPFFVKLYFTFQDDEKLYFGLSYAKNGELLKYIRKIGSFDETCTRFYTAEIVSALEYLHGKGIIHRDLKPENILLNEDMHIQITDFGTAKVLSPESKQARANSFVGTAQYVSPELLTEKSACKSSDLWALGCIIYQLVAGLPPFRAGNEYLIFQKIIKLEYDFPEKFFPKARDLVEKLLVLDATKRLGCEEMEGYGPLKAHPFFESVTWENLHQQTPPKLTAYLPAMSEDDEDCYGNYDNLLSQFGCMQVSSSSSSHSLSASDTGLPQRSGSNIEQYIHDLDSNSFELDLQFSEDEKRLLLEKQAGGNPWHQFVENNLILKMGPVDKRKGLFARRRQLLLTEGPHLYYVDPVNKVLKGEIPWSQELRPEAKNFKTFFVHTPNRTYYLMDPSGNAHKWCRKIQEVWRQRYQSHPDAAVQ
Chain of PDK1 (His6-PDK1(Δ1-50)) (O15530 51-556): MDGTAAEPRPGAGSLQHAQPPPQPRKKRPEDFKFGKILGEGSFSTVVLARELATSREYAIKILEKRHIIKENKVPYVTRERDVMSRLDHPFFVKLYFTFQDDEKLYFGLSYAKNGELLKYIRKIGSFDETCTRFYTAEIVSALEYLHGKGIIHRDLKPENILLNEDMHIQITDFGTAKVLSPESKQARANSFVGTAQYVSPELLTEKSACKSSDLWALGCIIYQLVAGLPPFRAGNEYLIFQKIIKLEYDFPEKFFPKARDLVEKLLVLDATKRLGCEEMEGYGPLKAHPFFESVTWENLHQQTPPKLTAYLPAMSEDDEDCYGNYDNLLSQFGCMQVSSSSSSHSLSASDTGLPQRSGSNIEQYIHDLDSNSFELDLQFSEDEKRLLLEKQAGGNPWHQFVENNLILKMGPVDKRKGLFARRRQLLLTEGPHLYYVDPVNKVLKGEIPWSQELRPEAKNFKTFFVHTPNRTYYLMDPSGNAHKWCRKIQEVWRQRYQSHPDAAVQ

Regarding `Cn1cc(-c2cnc3[nH]cc(-c4cc(N(CCO)c5ccccc5)nc(N)n4)c3c2)cn1` [A4, 2-({2-Amino-6-[5-(1-methyl-1H-pyrazol-4-yl)-1H-pyrrolo[2,3-b]-pyridin-3-yl]pyrimidin-4-yl}phenylamino)ethanol], the IC50 in series [1] (setting [2]) worked out at 250 nM; in series [1] (setting [3]), 250 nM; at PDK1 (His6-PDK1(Δ1-50)) (setting [4]), 13 nM; on PDK1 (His6-PDK1(Δ1-50)) (setting [5]), 13 nM. This molecule showed a solubility in the series “Solubility” of 1 µg/mL (≈ 2.34 µM).

With `Cn1cc(-c2cnc3[nH]cc(-c4cc(C5(c6ccccc6)CCCC5)nc(N)n4)c3c2)cn1` [A6, 4-[5-(1-Methyl-1H-pyrazol-4-yl)-1H-pyrrolo[2,3-b]pyridin-3-yl]-6-(1-phenylcyclopentyl)pyrimidin-2-ylamine], the IC50 turned out to be 625 nM in series [1] (setting [2]), 625 nM in series [1] (setting [6]), 130 nM at PDK1 (His6-PDK1(Δ1-50)) (setting [4]) and 130 nM on PDK1 (His6-PDK1(Δ1-50)) (setting [5]). This molecule had a solubility in the series “Solubility” of less than 1 µg/mL.

`Cn1cc(-c2cnc3[nH]cc(-c4cc(N(CCO)c5ccc(F)cc5F)nc(N)n4)c3c2)cn1` [A25, 2-[{2-Amino-6-[5-(1-methyl-1H-pyrazol-4-yl)-1H-pyrrolo[2,3-b]-pyridin-3-yl]pyrimidin-4-yl)-(2,4-difluorophenyl)amino]ethanol]: the concentration for half-maximal inhibition (IC50) came out at 35 nM in series [1] (setting [2]) and 6.5 nM on PDK1 (His6-PDK1(Δ1-50)) (setting [5]).

Regarding `Cn1cc(-c2cnc3[nH]cc(-c4cc(N(CCO)c5ccccc5F)nc(N)n4)c3c2)cn1` [A26, 2-[{2-Amino-6-[5-(1-methyl-1H-pyrazol-4-yl)-1H-pyrrolo[2,3-b]-pyridin-3-yl]pyrimidin-4-yl)-(2-fluorophenyl)amino]ethanol], the IC50 in series [1] (setting [2]) came to 23 nM; at PDK1 (His6-PDK1(Δ1-50)) (setting [5]), 5 nM.

Consider `Cn1cc(-c2cnc3[nH]cc(-c4cc(N5CCOc6ccccc65)nc(N)n4)c3c2)cn1` [A27, 4-(2,3-Dihydrobenzo-1,4-oxazin-4-yl)-6-[5-(1-methyl-1H-pyrazol-4-yl)-1H-pyrrolo[2,3-b]pyridin-3-yl]pyrimidin-2-ylamine], for which the IC50 was greater than 10000 nM in series [1] (setting [2]) and 5 nM at PDK1 (His6-PDK1(Δ1-50)) (setting [5]).

For the molecule `Cn1cc(-c2cnc3[nH]cc(-c4cc(N(CCN5CCOCC5)c5cccc(F)c5)nc(N)n4)c3c2)cn1` [A28, N4-(3-Fluorophenyl)-6-[5-(1-methyl-1H-pyrazol-4-yl)-1H-pyrrolo[2,3-b]pyridin-3-yl]-N4-(2-morpholin-4-ylethyl)pyrimidine-2,4-diamine], the values for the IC50 (in series [1] (setting [2]); on PDK1 (His6-PDK1(Δ1-50)) (setting [5])) were 9700 nM and 89 nM, respectively.

Take `COCCN(c1cc(-c2c[nH]c3ncc(-c4cnn(C)c4)cc23)nc(N)n1)c1ccccc1Cl` [A29, N4-(2-Chlorophenyl)-N4-(2-methoxyethyl)-6-[5-(1-methyl-1H-pyrazol-4-yl)-1H-pyrrolo[2,3-b]pyridin-3-yl]pyrimidine-2,4-diamine]: the IC50 came out at 25.5 nM in series [1] (setting [2]) and 7 nM at PDK1 (His6-PDK1(Δ1-50)) (setting [5]).

As to `Cn1cc(-c2cnc3[nH]cc(-c4cc(N(CCCN)c5ccccc5)nc(N)n4)c3c2)cn1` [A31, N4-(3-Aminopropyl)-6-[5-(1-methyl-1H-pyrazol-4-yl)-1H-pyrrolo[2,3-b]pyridin-3-yl]-N4-phenylpyrimidine-2,4-diamine], the concentration for half-maximal inhibition (IC50) in series [1] (setting [2]) is 6800 nM; in series [1] (setting [6]), 6800 nM; at PDK1 (His6-PDK1(Δ1-50)) (setting [4]), 8.7 nM; on PDK1 (His6-PDK1(Δ1-50)) (setting [5]) it was 8.7 nM.

On to `Cn1cc(-c2cnc3[nH]cc(-c4cc(C5(c6ccccc6F)CC5)nc(N)n4)c3c2)cn1` [A42, 4-[1-(2-Fluorophenyl)cyclopropyl]-6-[5-(1-methyl-1H-pyrazol-4-yl)-1H-pyrrolo[2,3-b]pyridin-3-yl]pyrimidin-2-ylamine], for which the IC50 in series [1] (setting [2]) is 20 nM; at PDK1 (His6-PDK1(Δ1-50)) (setting [5]), 45.5 nM.

Consider `CC(=O)NCCCN(c1ccccc1)c1cc(-c2c[nH]c3ncc(-c4cnn(C)c4)cc23)nc(N)n1` [A43, N-[3-({2-Amino-6-[5-(1-methyl-1H-pyrazol-4-yl)-1H-pyrrolo-[2,3-b]pyridin-3-yl]pyrimidin-4-yl}phenylamino)propyl]acetamide], for which the IC50 in series [1] (setting [2]) is 430 nM; in series [1] (setting [3]), 430 nM; on PDK1 (His6-PDK1(Δ1-50)) (setting [4]), 22 nM; at PDK1 (His6-PDK1(Δ1-50)) (setting [5]) it was 22 nM.

As to `CC(C)n1cc(-c2cnc3[nH]cc(-c4cc(C(C)(O)c5ccccc5)nc(N)n4)c3c2)cn1` (centres unmarked) [reference compound], the figures for the IC50 (in series [1] (setting [3]); on PDK1 (His6-PDK1(Δ1-50)) (setting [4])) were 492 nM and 54 nM, respectively. This molecule also returned a solubility in the series “Solubility” of less than 1 µg/mL.

On to `CC(C)Cn1cc(-c2cnc3[nH]cc(-c4cc(CCCN)nc(N)n4)c3c2)cn1` [reference compound], for which the IC50 was greater than 30000 nM in series [1] (setting [6]) and 11 nM on PDK1 (His6-PDK1(Δ1-50)) (setting [4]).

With `CC(=O)NCCCc1cc(-c2c[nH]c3ncc(-c4cnn(C(C)C)c4)cc23)nc(N)n1` [reference compound], the IC50 is greater than 30000 nM in series [1] (setting [6]) and 240 nM at PDK1 (His6-PDK1(Δ1-50)) (setting [4]). In the series “Solubility”, this molecule yielded a solubility greater than 46 µg/mL.

In the case of `CC(C)n1cc(-c2cnc3[nH]cc(-c4cc(C5(O)CCCC5)nc(N)n4)c3c2)cn1` [reference compound], the IC50 in series [1] (setting [6]) was 3500 nM; on PDK1 (His6-PDK1(Δ1-50)) (setting [4]), 61 nM. In “Solubility”, this molecule had a solubility of 8 µg/mL (≈ 19.8 µM).

These data come from patent US8664236B2, “1H-pyrrolo[2,3 b]-pyridine derivatives” (Merck Patent GmbH, priority 2010, dated 2014).
